Results: ChEMBL document CHEMBL5291721, “A preclinical secondary pharmacology resource illuminates target-adverse drug reaction associations of marketed drugs” (Nat Commun, 2023)

Experiments:
Adenosine receptor A3 = target: T1, Adenosine receptor A3 (Homo sapiens, UniProt P0DMS8)
T1 sequence (P0DMS8 whole entry): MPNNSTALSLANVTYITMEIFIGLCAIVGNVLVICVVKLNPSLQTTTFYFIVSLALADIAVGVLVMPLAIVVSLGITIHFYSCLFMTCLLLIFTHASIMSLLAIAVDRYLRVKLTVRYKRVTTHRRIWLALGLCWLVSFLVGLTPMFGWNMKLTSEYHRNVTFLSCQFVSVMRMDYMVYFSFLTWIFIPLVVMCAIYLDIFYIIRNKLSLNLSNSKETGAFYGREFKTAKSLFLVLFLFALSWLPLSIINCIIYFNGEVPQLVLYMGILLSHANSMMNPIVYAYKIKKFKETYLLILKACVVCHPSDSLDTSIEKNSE

[1] = target: T2, Alpha-2A adrenergic receptor (Homo sapiens, UniProt P08913); type: functional, cell-based
T2 sequence (P08913 whole entry): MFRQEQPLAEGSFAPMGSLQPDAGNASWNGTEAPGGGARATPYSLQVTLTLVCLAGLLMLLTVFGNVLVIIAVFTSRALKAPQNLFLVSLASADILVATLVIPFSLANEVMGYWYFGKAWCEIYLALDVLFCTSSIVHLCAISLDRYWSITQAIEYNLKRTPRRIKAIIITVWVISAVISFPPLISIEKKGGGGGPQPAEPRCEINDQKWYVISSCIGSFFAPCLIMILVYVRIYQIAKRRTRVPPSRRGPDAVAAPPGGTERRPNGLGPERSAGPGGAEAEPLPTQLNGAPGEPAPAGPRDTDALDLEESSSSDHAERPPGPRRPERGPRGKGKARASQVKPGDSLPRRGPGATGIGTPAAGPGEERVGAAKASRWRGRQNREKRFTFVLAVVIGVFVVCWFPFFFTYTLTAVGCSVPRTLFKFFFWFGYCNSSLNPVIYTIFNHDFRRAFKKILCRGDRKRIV

[2] = target: T3, Alpha-2C adrenergic receptor (Homo sapiens, UniProt P18825); type: functional
T3 sequence (P18825 whole entry): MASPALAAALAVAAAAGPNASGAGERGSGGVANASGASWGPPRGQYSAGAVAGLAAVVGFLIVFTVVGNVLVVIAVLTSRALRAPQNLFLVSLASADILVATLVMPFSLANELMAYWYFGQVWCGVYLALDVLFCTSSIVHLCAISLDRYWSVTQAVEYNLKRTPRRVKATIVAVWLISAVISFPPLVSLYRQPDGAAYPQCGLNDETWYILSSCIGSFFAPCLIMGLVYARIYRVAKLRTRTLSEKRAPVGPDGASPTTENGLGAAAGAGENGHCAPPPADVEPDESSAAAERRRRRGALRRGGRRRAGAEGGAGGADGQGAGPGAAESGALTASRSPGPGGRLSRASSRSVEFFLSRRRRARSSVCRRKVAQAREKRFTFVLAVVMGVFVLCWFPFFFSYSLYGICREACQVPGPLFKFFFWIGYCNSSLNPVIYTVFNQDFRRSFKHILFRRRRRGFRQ

[3] = target: Neuronal acetylcholine receptor subunit alpha-4 (Homo sapiens, UniProt P43681)
Neuronal acetylcholine receptor subunit alpha-4, sequence (P43681 whole entry): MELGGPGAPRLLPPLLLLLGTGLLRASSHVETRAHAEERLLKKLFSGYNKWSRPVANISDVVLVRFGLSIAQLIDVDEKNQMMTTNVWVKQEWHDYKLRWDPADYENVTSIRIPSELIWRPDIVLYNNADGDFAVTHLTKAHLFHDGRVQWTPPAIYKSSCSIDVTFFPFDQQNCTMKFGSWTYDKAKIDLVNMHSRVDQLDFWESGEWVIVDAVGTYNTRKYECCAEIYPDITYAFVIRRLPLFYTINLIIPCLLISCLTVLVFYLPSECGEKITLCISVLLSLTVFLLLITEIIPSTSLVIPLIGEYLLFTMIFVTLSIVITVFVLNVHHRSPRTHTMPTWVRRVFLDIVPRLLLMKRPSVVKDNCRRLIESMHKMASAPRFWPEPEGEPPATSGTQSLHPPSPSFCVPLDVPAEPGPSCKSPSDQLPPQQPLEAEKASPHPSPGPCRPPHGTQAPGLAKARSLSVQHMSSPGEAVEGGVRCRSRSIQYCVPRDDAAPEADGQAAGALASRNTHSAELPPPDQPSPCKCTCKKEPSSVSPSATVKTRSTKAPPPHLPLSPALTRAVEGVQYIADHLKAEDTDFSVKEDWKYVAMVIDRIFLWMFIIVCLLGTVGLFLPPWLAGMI

[4] = target: 5-hydroxytryptamine receptor 2B (Homo sapiens, UniProt P41595); type: functional, cell-based
5-hydroxytryptamine receptor 2B, sequence (P41595 whole entry): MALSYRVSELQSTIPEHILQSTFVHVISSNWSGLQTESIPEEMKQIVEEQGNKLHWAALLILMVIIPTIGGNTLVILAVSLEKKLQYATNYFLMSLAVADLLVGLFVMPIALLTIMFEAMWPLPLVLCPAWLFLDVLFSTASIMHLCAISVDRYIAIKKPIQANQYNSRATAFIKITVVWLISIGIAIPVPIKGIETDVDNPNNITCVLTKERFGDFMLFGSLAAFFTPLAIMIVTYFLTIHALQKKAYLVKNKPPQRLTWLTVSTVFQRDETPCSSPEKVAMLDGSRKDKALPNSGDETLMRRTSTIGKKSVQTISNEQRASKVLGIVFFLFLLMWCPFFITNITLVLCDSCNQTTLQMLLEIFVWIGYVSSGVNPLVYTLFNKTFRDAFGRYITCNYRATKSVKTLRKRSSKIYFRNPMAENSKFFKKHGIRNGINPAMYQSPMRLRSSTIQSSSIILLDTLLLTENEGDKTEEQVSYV

[5] = target: T4, 5-hydroxytryptamine receptor 3A (Homo sapiens, UniProt P46098); type: functional
T4 sequence (P46098 whole entry): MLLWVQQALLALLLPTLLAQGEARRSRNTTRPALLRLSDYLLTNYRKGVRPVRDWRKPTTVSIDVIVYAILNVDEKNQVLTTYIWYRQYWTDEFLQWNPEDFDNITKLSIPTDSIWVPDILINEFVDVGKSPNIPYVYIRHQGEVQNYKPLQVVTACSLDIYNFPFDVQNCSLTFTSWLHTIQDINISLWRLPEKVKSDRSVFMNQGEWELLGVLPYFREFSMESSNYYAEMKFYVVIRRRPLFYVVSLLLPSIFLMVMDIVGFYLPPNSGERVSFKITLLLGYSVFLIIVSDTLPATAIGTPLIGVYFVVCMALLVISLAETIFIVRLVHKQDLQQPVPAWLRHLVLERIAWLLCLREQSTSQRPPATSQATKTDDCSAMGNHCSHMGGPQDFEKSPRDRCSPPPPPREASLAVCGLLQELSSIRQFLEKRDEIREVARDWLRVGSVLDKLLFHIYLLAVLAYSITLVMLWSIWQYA

Motilin receptor = Motilin receptor (Homo sapiens, UniProt O43193)
Motilin receptor, sequence (O43193 whole entry): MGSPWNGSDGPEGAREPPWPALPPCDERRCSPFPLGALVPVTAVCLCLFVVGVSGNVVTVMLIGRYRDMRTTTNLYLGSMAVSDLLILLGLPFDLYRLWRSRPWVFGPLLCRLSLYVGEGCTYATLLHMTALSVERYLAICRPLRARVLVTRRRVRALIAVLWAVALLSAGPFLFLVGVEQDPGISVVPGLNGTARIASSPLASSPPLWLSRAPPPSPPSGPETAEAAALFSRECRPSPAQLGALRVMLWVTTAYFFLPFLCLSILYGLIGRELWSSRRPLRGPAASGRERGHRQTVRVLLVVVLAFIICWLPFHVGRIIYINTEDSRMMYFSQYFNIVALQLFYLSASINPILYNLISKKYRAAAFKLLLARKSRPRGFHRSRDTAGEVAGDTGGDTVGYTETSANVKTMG

[6] = target: T5, Prostaglandin G/H synthase 1 (Rattus norvegicus, UniProt Q63921); type: functional
T5 sequence (Q63921 whole entry): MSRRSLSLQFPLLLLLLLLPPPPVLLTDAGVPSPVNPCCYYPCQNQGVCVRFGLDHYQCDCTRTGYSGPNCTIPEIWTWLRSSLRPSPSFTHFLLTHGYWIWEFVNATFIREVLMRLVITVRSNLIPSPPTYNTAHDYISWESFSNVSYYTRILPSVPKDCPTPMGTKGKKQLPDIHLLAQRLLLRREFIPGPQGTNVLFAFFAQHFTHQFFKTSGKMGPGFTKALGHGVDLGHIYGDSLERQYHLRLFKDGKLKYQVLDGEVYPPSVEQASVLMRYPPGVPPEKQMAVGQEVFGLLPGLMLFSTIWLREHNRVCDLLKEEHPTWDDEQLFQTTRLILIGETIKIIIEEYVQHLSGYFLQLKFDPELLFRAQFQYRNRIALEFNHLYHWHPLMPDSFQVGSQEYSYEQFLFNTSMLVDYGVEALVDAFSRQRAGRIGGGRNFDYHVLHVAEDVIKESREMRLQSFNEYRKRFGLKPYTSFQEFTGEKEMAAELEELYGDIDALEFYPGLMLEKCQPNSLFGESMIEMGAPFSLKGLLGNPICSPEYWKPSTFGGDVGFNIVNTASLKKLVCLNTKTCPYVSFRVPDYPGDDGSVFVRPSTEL

[7] = target: Sodium-dependent dopamine transporter (Homo sapiens, UniProt Q01959)
Sodium-dependent dopamine transporter, sequence (Q01959 whole entry): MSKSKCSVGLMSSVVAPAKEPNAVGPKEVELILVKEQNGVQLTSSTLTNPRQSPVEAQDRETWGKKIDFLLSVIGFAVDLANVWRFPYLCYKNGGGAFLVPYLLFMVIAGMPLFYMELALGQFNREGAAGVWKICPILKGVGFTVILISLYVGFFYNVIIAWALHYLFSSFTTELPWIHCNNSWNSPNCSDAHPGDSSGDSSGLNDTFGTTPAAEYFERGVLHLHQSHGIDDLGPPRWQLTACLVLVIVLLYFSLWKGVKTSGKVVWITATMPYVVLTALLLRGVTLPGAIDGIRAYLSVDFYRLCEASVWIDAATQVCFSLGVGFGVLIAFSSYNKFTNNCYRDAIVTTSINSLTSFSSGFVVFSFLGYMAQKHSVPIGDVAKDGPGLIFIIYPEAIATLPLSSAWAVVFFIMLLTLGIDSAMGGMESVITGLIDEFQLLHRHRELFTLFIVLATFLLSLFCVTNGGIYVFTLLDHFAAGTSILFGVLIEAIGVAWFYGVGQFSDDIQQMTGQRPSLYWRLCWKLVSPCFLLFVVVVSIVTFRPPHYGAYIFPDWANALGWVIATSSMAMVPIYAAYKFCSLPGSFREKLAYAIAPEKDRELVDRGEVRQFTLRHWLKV

[8] = target: cGMP-inhibited 3',5'-cyclic phosphodiesterase 3A (Homo sapiens, UniProt Q14432); type: functional
cGMP-inhibited 3',5'-cyclic phosphodiesterase 3A, sequence (Q14432 whole entry): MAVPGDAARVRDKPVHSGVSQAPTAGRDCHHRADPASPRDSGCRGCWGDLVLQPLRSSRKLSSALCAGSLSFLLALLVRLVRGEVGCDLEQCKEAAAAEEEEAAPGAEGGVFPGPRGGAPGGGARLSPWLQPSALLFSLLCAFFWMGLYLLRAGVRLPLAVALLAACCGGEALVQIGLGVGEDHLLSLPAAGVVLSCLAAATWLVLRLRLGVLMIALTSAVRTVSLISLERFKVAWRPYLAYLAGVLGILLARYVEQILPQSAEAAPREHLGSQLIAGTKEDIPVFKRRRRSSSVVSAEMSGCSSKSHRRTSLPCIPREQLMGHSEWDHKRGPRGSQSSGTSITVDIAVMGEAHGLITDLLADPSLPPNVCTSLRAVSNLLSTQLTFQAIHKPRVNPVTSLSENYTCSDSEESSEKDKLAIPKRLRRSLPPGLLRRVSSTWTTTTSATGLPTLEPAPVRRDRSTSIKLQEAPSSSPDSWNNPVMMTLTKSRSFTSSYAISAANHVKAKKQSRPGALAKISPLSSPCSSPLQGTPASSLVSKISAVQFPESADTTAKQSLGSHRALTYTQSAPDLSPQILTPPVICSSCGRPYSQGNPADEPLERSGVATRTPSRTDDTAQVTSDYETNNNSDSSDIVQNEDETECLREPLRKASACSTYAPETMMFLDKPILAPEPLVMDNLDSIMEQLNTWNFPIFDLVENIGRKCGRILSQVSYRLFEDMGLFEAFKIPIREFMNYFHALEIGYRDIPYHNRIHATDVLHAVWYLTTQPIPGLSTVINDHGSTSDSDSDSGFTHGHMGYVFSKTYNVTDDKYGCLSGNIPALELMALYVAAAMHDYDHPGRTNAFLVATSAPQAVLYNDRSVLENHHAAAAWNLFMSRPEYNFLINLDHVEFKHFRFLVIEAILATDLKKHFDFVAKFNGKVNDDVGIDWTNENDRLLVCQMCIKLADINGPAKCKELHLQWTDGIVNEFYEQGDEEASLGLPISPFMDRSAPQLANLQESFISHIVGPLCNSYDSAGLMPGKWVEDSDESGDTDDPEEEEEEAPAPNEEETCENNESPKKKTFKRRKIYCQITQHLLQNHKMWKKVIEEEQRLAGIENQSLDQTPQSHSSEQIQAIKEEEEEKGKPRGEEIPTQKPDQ

D(3) dopamine receptor = D(3) dopamine receptor (Homo sapiens, UniProt P35462)
D(3) dopamine receptor, sequence (P35462 whole entry): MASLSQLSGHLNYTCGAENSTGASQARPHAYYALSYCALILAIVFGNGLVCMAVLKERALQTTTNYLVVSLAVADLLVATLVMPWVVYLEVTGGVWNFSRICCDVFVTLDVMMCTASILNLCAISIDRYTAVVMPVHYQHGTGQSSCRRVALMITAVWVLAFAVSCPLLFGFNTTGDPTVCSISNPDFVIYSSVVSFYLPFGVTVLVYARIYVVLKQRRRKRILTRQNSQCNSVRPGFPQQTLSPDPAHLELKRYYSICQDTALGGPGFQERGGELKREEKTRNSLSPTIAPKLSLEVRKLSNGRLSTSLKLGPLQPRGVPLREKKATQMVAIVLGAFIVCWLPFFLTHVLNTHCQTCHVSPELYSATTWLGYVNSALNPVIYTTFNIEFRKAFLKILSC
Further: assay procedure not described here.

Cc1ccc(C(=O)c2cc(O)c(O)c([N+](=O)[O-])c2)cc1 [TOLCAPONE]
AC50 (Adenosine receptor A3): 11.9 µM
AC50 [1]: > 10 µM
AC50 [2]: > 10 µM
AC50 [3]: > 10 µM
AC50 [4]: > 10 µM
AC50 [5]: > 10 µM
AC50 (Motilin receptor): > 10 µM
AC50 [6]: 12.7 µM
AC50 [7]: 1.1 µM
AC50 [8]: 18 µM
AC50 (D(3) dopamine receptor): > 30 µM

COc1ccc2c(c1)C(=O)N(CCc1ccc(S(=O)(=O)NC(=O)NC3CCCCC3)cc1)C(=O)C2(C)C [GLIQUIDONE]
AC50 (Adenosine receptor A3): > 30 µM
AC50 [1]: > 30 µM
AC50 [2]: > 30 µM
AC50 [3]: > 30 µM
AC50 [4]: > 30 µM
AC50 [5]: > 30 µM
AC50 (Motilin receptor): > 30 µM
AC50 [6]: > 30 µM
AC50 [7]: > 30 µM
AC50 [8]: 5.3 µM
AC50 (D(3) dopamine receptor): > 30 µM

CC(=O)c1ccc2c(c1)N(CCCN1CCN(CCO)CC1)c1ccccc1S2 [ACETOPHENAZINE]
AC50 (Adenosine receptor A3): > 30 µM
AC50 [1]: 1.2 µM
AC50 [2]: 0.72 µM
AC50 [3]: > 30 µM
AC50 [4]: 4.49 µM
AC50 [5]: > 30 µM
AC50 (Motilin receptor): 27 µM
AC50 [6]: > 30 µM
AC50 [7]: 25 µM
AC50 [8]: > 30 µM
AC50 (D(3) dopamine receptor): 0.0044 µM

CC(C(=O)O)c1ccc(C(=O)c2cccs2)cc1 (configuration not stated) [SUPROFEN]
AC50 (Adenosine receptor A3): > 10 µM
AC50 [1]: > 10 µM
AC50 [2]: > 10 µM
AC50 [3]: > 10 µM
AC50 [4]: > 10 µM
AC50 [5]: > 30 µM
AC50 (Motilin receptor): > 10 µM
AC50 [6]: 0.284 µM
AC50 [7]: > 10 µM
AC50 [8]: > 30 µM
AC50 (D(3) dopamine receptor): > 30 µM

NC(=O)c1ncn([C@@H]2O[C@H](CO)[C@@H](O)[C@H]2O)c1O [MIZORIBINE]
AC50 (Adenosine receptor A3): > 30 µM
AC50 [1]: > 30 µM
AC50 [2]: > 30 µM
AC50 [3]: > 30 µM
AC50 [4]: > 30 µM
AC50 [5]: > 30 µM
AC50 (Motilin receptor): > 30 µM
AC50 [6]: > 30 µM
AC50 [7]: > 30 µM
AC50 [8]: > 30 µM
AC50 (D(3) dopamine receptor): > 30 µM

CN1C(=O)CC(C)(c2ccccc2)C1=O (configuration not stated) [METHSUXIMIDE]
AC50 (Adenosine receptor A3): > 10 µM
AC50 [1]: > 10 µM
AC50 [2]: > 10 µM
AC50 [3]: > 10 µM
AC50 [4]: > 10 µM
AC50 [5]: > 30 µM
AC50 (Motilin receptor): > 10 µM
AC50 [6]: > 10 µM
AC50 [7]: > 10 µM
AC50 [8]: > 30 µM
AC50 (D(3) dopamine receptor): > 30 µM

NC[C@H]1CC[C@H](C(=O)O)CC1 [TRANEXAMIC ACID]
AC50 (Adenosine receptor A3): > 10 µM
AC50 [1]: > 10 µM
AC50 [2]: > 10 µM
AC50 [3]: > 10 µM
AC50 [4]: > 10 µM
AC50 [5]: > 30 µM
AC50 (Motilin receptor): > 10 µM
AC50 [6]: > 10 µM
AC50 [7]: > 10 µM
AC50 [8]: > 30 µM
AC50 (D(3) dopamine receptor): > 30 µM
